The subject of one test is Pantetheinase (vanin). Briefly: Human Whole Blood assay (vanin activity by pantothenic acid formation). The format is cell-based. The conditions noted are these: pantethine substrate, 5 min reaction at room temperature, geometric mean in case of multiple measurements, read-out: HWB IC50. The procedure:
Human Whole Blood assay: Pantetheinase (vanin) converts panteheine into pantothenic acid and cysteamine. Accordingly, in the described protocol vanin activity is quantified by formation of pantothenic acid after pantetheine supplementation via pantethine. The assay is applicable to identify vanin inhibitors. Compound stocks are dissolved in DMSO at 10 mM. Further dilutions are performed in RPMI 1640 medium (Gibco, #A-10491-01) and final concentrations in the assay are 0.032 nM-500 nM.
Human blood is drawn into a blood bag (1% heparin, 50 I.E./mL). Blood is aliquoted into cavities of 96-deep-well plates at 290 μL and mixed with 10 μL compound solution or vehicle (30 sec at 1400 rpm on a shaker). Equilibration follows at room temperature, 250 rpm and for 30 min. The assay is started by adding 10 μL of substrate solution (2 μM pantethine in 1 mM DTT, 0.0025% Brij-35, 50 mM HEPES, pH7.5) to each well, except for some blank wells which receive […] substrate buffer (1 mM DTT, 0.0025% Brij-35, 50 mM HEPES, pH7.5) only. Samples are thoroughly shaken (30 sec, 1400 rpm) and reaction is allowed to take place at room temperature, 250 rpm and for 5 min. The reaction is stopped by addition of a vanin tool inhibitor in excess (BI-1 total conc. 10 μM). Centrifugation of the plate follows at 4° C., 665 G for 10 min. Then the blood plasma samples (100 μL) are transferred into another 96-deep-well plate and proteins are precipitated (5 min on ice) by adding 100 μL of ice cold precipitation solution (1 μM labelled pantothenic acid (di-β-alanine-13C6,15N2 calcium salt, Sigma, #705837) in acetonitrile).
Afterwards the plate is centrifuged (4° C., 3220 G, 10 min) and supernatants (50 μL) are collected into another 96-deep-well plate and mixed (10 sec, 1400 rpm) with 150 μL ice cold formic acid (0.1%, Carl Roth GmbH+Co.KG, #CP03.1). The formation of pantothenic acid is detected by RapidFire Mass Spectrometry. A TripleQuad 6500+(ABSciex, Germany) is equipped with an LC-1290 system, a RapidFire autosampler (Agilent, Germany) and a C18 cartridge Type C 12 μL (Agilent Cat #G9526-80000). Mobile phase A is consisting of 0.09% formic acid and 0.01% trifluoroacetic acid in water and mobile phase B of 0.09% formic acid and 0.01% trifluoroacetic acid in acetonitrile/methanol/water=47.5/47.5/5.

For test [1], the target named is T1, FLAG-tagged Vanin-1 (AA 22-493, T26I) (Homo sapiens, UniProt O95497, T26I).
T1 construct: FLAG-tagged Vanin-1 (AA 22-493, T26I, produced internally); FLAG; made in house
T1 sequence (O95497 22-493 T26I): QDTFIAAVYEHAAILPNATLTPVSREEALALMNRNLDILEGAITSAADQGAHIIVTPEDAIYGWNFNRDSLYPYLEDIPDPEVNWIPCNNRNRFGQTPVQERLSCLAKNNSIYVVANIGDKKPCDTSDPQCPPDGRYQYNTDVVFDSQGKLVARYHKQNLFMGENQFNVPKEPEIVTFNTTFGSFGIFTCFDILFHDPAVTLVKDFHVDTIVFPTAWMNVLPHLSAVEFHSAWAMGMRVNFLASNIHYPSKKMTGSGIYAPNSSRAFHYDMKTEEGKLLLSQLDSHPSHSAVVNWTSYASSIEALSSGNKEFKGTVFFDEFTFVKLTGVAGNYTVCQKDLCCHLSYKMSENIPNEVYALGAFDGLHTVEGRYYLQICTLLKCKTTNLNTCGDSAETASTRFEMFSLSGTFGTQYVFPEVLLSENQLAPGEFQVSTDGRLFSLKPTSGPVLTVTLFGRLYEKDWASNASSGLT
The test is described as follows: Vanin-1 enzymatic assay (pantothenic acid formation, RapidFire mass spectrometry). The format is biochemical. The conditions noted are these: 0.1 nM FLAG-tagged Vanin-1, 3 μM D-pantethine, room temperature; geometric mean in case of multiple measurements; read-out: VNN-1 IC50. The protocol:
Description of Biological Properties Vanin-1 Enzymatic Assay:
The test compounds are dissolved in 100% DMSO at a concentration of 10 mM and in a first step diluted in DMSO to a concentration of 5 mM, followed by serial dilution steps in 100% DMSO. Dilution factor and number of dilution steps may vary according to needs. Typically 8 different concentrations by 1:5 dilutions are prepared, a further intermediate dilutions of the substances is carried out with assay buffer resulting in 1% final DMSO concentration in the assay.
0.1 nM of FLAG-tagged Vanin-1 (AA 22-493, T26I, produced internally) and test compounds are incubated at room temperature for 20 minutes in assay buffer (1 mM DTT, 0.0025% Brij-35, 50 mM HEPES, pH7.5). D-Pantethine (Sigma, Cat #P2125-5G) in assay buffer is added (final concentration 3 μM) and incubated for additional 30 minutes at room temperature. Total assay volume typically is 40 μl but might be adjusted according to needs. Reaction is stopped by adding equal volume of stop solution as the reaction mixture to reach 100 nM HD-pantothenic acid (as an internal standard) and 1% TFA. Assay plates are centrifuged for 2 minutes and the formation of pantothenic acid is detected by RapidFire Mass Spectrometry (mobile phase A: 0.1% formic acid and 0.01% trifluoroacetic acid in water; mobile phase B: 47.5% acetonitrile, 47.5% methanol, 0.1% formic acid and 0.01% trifluoroacetic acid in water) using a C18, 12 μL cartridge (Agilent Cat #G9205A).
The values given in Table I result from measurements of one or more samples. In case of multiple measurements the geometric mean values are given.

pIC50: −log10 of the molar value.

Broadly, the pIC50 is the IC50 on a negative log10 scale, so that one unit is a factor of ten. Regarding `O=C(c1ccc(NCc2cnc3ccccn23)nc1)N1CC[C@H](N2CCOC2=O)C1` [Example 1.1, 3-[(3S)-1-{6-[({Imidazo[1,2-a]pyridin-3-yl}methyl)amino]pyridine-3-carbonyl}pyrrolidin-3-yl]-1,3-oxazolidin-2-one], the pIC50 with Pantetheinase (vanin) was 8.46; in test [1], 9.62. Regarding `C[C@H](Nc1ccc(C(=O)N2CC[C@H](N(C)C(=O)C3CC3)C2)cn1)c1cnc2[nH]ccc2c1` [Example 1.2], the values for the pIC50 (in the test on Pantetheinase (vanin); in test [1]) were 8.71 and 10.05, respectively. The corresponding values for `C[C@H](Nc1ccc(C(=O)N2CC[C@H](N(C)C(=O)C3(C#N)CC3)C2)cn1)c1cnc2[nH]ccc2c1` [Example 1.3] are 8.52 and 10.00. On the same counts, the results for `C[C@H](Nc1ccc(C(=O)N2CC[C@H](N(C)C(=O)C3CCC3)C2)cn1)c1cnc2[nH]ccc2c1` [Example 1.4] are 8.68 and 10.00. On to `C[C@H](Nc1ccc(C(=O)N2CC[C@H](N(C)C(=O)C3CCC3)C2)cn1)c1cnc2[nH]ccc2c1` [Example 1.5], for which the results for the pIC50 (in the test on Pantetheinase (vanin); in test [1]) were 8.80 and 9.96, respectively. In the case of `C[C@H](Nc1ccc(C(=O)N2CC[C@H](N(C)C(=O)C3CC(F)(F)C3)C2)cn1)c1cnc2[nH]ccc2c1` [Example 1.6], the pIC50 in the test with Pantetheinase (vanin) is 8.20; in test [1] it was 9.92. `C[C@H](Nc1ccc(C(=O)N2CC[C@H](N(C)C(=O)C3(C#N)CC3)C2)cn1)c1cnc2[nH]ccc2c1` [Example 1.7]: the pIC50 in the test on Pantetheinase (vanin) is 8.77; in test [1], 9.89. Regarding `C[C@H](Nc1ccc(C(=O)N2CC[C@H](N(C)C(=O)C3(C)CCC3)C2)cn1)c1cnc2[nH]ccc2c1` [Example 1.8], the pIC50 in test [1] was 9.85. With `C[C@H](Nc1ccc(C(=O)N2CC[C@H](N(C)C(=O)C3CC(F)(F)C3)C2)cn1)c1cnc2[nH]ccc2c1` [Example 1.10], the pIC50 with Pantetheinase (vanin) is 8.56; in test [1] it was 9.80. Regarding `C[C@H](Nc1ccc(C(=O)N2CC[C@H](N(C)C(=O)C3(C)CCC3)C2)cn1)c1cnc2[nH]ccc2c1` [Example 1.11], the pIC50 in test [1] is 9.70. Turning to `CN(C(=O)C1CC(F)(F)C1)[C@H]1CCN(C(=O)c2ccc(NCc3cnc4ccccn34)nc2)C1` [Example 1.12], the negative logarithm of the IC50 (pIC50) with Pantetheinase (vanin) was 8.83; in test [1], 10.00. In the case of `CC(=O)N(C)[C@H]1CCN(C(=O)c2ccc(N[C@@H](C)c3cccc4ccccc34)nc2)C1` [Example 2.2], the pIC50 in test [1] is 9.85. Same read-out and setting: with `CC(=O)N(C)[C@H]1CCN(C(=O)c2ccc(NCc3csc4ccc(Cl)cc34)nc2)C1` [Example 2.3] the figure was 9.68. With `CC(=O)N(C)[C@H]1CCN(C(=O)c2ccc(NCc3cccc4c3ccn4C)nc2)C1` [Example 2.5], the pIC50 in test [1] is 9.17. On the same count and under the same terms, with `CC(=O)N(C)[C@H]1CCN(C(=O)c2ccc(NCc3cc4ccccc4s3)nc2)C1` [Example 2.6] the figure was 8.69; with `CC(=O)N(C)[C@H]1CCN(C(=O)c2ccc(NCc3cc(Br)cc4[nH]ncc34)nc2)C1` [Example 5.5], 9.89; with `CC(=O)N(C)[C@H]1CCN(C(=O)c2ccc(NCc3cnc4ccccc4c3)nc2)C1` [Example 5.11], 9.68. For the molecule `CC(=O)N(C)[C@H]1CCN(C(=O)c2ccc(NCc3ccc4[nH]ccc4c3)nc2)C1` [Example 5.17], in test [1], the pIC50 was 9.19. Same read-out and setting: with `CC(=O)N(C)[C@H]1CCN(C(=O)c2ccc(NCc3ccc4nc(N)[nH]c4c3)nc2)C1` [Example 5.18] the figure was 9.16. Still for that read-out and setting: the value for `CC(=O)N(C)[C@H]1CCN(C(=O)c2ccc(N[C@@H](C)c3nc4cc(Cl)c(F)cc4[nH]3)nc2)C1` [Example 5.20] was 9.12; that for `CC(=O)N(C)[C@H]1CCN(C(=O)c2ccc(N[C@H](C)c3cccc4c3cnn4C)nc2)C1` [Example 5.25] was 8.84. Still for that read-out and setting: the value for `CC(=O)N(C)[C@H]1CCN(C(=O)c2ccc(NCc3ccc4ncccc4c3)nc2)C1` [Example 5.26] was 8.79; that for `CC(=O)N(C)[C@H]1CCN(C(=O)c2ccc(N[C@H](C)c3cccc4nn(C)cc34)nc2)C1` [Example 5.27] was 8.65.

In the case of `CC(=O)N(C)[C@H]1CCN(C(=O)c2ccc(NCc3n[nH]c4c3CCCC4)nc2)C1` [Example 5.28], in test [1], the pIC50 is 8.58. For the molecule `CC(=O)N(C)[C@H]1CCN(C(=O)c2ccc(NCc3cnn4cccnc34)nc2)C1` [Example 5.29], in test [1], the pIC50 was 8.56. Consider `CC(=O)N(C)[C@H]1CCN(C(=O)c2ccc(NCc3cccc4cccnc34)nc2)C1` [Example 5.30], for which, in test [1], the pIC50 was 8.52. Still for that read-out and setting: with `CC(=O)N(C)[C@H]1CCN(C(=O)c2ccc(NCc3nc4ccccc4s3)nc2)C1` [Example 5.31] the figure was 8.34; with `CC(=O)N(C)[C@H]1CCN(C(=O)c2ccc(N[C@H](C)c3ccc4c(cnn4C)c3)nc2)C1` [Example 5.32], 8.04.

With `CC(=O)N(C)[C@H]1CCN(C(=O)c2ccc(NCc3cc4ccccc4[nH]3)nc2)C1` [Example 5.33], the pIC50 in test [1] was 8.03.

Regarding `CC(=O)N(C)[C@H]1CCN(C(=O)c2ccc(NCc3ccc4onc(N)c4c3)nc2)C1` [Example 5.34], the pIC50 in test [1] is 8.03. `CC(=O)N(C)[C@H]1CCN(C(=O)c2ccc(N[C@@H](C)c3ccc4c(cnn4C)c3)nc2)C1` [Example 5.37]: the pIC50 in test [1] was 9.62. `CC(=O)N(C)[C@H]1CCN(C(=O)c2ccc(NCc3cc(C)cc4[nH]ncc34)nc2)C1` [Example 6.1, N-Methyl-N-[(3S)-1-(6-{[(6-methyl-1H-indazol-4-yl)methyl]amino}pyridine-3-carbonyl)pyrrolidin-3-yl]acetamide]: the pIC50 in test [1] is 9.85. `O=C(c1ccc(NCc2csc3ccccc23)nc1)N1CC[C@H](N2CCOC2=O)C1` [Example 8.1, 3-[(3S)-1-(6-{[(1-Benzothiophen-3-yl)methyl]amino}pyridine-3-carbonyl)pyrrolidin-3-yl]-13-oxazolidin-2-one]: the pIC50 in test [1] is 9.70. The same measure, in the same setting: with `O=C(c1ccc(NCc2csc3ccccc23)nc1)N1CC[C@H](N2CCCC2=O)C1` [Example 8.2] the figure was 9.68; with `CN(C(=O)C1CCC1)[C@H]1CCN(C(=O)c2ccc(NCc3csc4ccccc34)nc2)C1` [Example 9.1, N-[(3S)-1-(6-{[(1-Benzothiophen-3-yl)methyl]amino}pyridine-3-carbonyl)pyrrolidin-3-yl]-N-methylcyclobutanecarboxamide], 9.59. In the case of `CC1(C#N)CCN(C(=O)c2ccc(NCc3csc4ccccc34)nc2)C1` (stereo not drawn) [Example 9.2], the pIC50 in test [1] is 8.94.

(Values after patent publication US12358910B2, “Heteroaromatic compounds as Vanin inhibitors” (Boehringer Ingelheim International GmbH, priority 2018, dated 2025).)
